Paper PMC7113773 (Antiviral Research, 2014)

What was measured:
[1] = system: PR8 virus NP and HA protein; format: cell-based, influenza A virus; settings: 11, 33 and 100 μM, 24 h at 35 °C
[2] = system: influenza A/H1N1, A/H3N2 and B viruses; assay: CPE reduction assay / screen, stated for the three influenza viruses together; format: cell-based; settings: Influenza A virus, H1N1|H3N2, read-out: virus growth inhibition
HSV = assay: MTT-based antiviral assay, HSV in Vero cells; format: cell-based, herpes simplex virus; settings: maximum concentration of 100 μM, data not shown
[3] = system: wild-type NA derived from influenza H1N1 (A/California/04/2009); format: biochemical
PR8 virus [4] = format: cell-based, influenza A virus
in vitro = settings: dog
FECV = assay: MTT-based antiviral assay, FECV in CrFK cells; format: cell-based, feline coronavirus; settings: maximum concentration of 100 μM, data not shown
[5] = molecular target: PR8-derived viral RNA polymerase (Influenza A virus, UniProt P03428+P03431+P03433); format: cell-based; settings: 11, 33 and 100 μM, Vero cells, FLuc normalized against RLuc, day 1
PR8 virus [6] = format: cell-based, influenza A virus; remark: listed apart in the source
HIV = assay: MTT-based antiviral assay, HIV in MT-4 cells; format: cell-based, human immunodeficiency virus; settings: maximum concentration of 100 μM, data not shown
PR8 NA = PR8 NA (Influenza A virus, UniProt P03468); assay: biochemical
CoxB = assay: MTT-based antiviral assay, CoxB in HeLa cells; format: cell-based, Coxsackie B virus; settings: maximum concentration of 100 μM, data not shown
[7] = system: A/Puerto Rico/8/34 (H1N1; PR8); assay: organism not typed; format: cell-based, influenza A virus; settings: for EC50: MDCK, 72 h, read-out: EC50 for influenza virus A/Puerto Rico/8/34
[8] = system: pore-forming glycoprotein perforin; settings: previous study, ref Lena et al., 2008; cited from earlier work
A/Hong Kong/8/68 (H3N2) = assay: organism not typed; format: cell-based, influenza A virus; settings: for EC50: MDCK, 72 h, read-out: EC50 for influenza virus A/Hong Kong/8/68
PR8 virus entry = assay: Confocal microscopy of viral NP; settings: 100 μM, MOI 2.5, 2 h at 37 °C, MDCK cells
B/Lee/40 = format: cell-based, influenza B virus
PR8 virus [9] = format: cell-based, influenza A virus; remark: listed apart in the source

## Cc1cc2c(c(=S)[nH]1)C(=O)O/C2=C\c1c[nH]c2ccc(F)cc12 [Compound 15a, (Z)-1-((5-Fluoro-1H-indol-3-yl)methylene)-6-methyl-4-thioxo-4,5-dihydrofuro[3,4-c]pyridin-3(1H)-one]
[1]
  viral protein level (NP, HA) in cells: Reduction of the influenza viral protein level
[2]
  inhibition at 20 µM: > 50%
HSV
  antiviral activity against HSV: no antiviral activity was detected
[3]
  function of wild-type NA: suppressed
PR8 virus [4]
  plaque titer (infectious viral titers): significantly inhibited
In vitro
  CC50: > 900 µM
FECV
  antiviral activity against FECV: no antiviral activity was detected
[5]
  viral RNA polymerase function: not changed
PR8 virus [6]
  vRNA levels in culture supernatants: significantly inhibited
HIV
  antiviral activity against HIV: no antiviral activity was detected
PR8 NA
  IC50: 0.6 ± 0.1 µM
CoxB
  antiviral activity against CoxB: no antiviral activity was detected

## Cc1cc2c(c(=S)[nH]1)C(=O)O/C2=C\c1cccs1 [Compound 15q, (Z)-6-Methyl-1-(thiophen-2-ylmethylene)-4-thioxo-4,5-dihydrofuro[3,4-c]pyridin-3(1H)-one]
[1]
  viral protein level (NP, HA) in cells: Reduction of the influenza viral protein level
HSV
  antiviral activity against HSV: no antiviral activity was detected
[7]
  S.I. (selectivity index, CC50/EC50), A/Puerto Rico/8/34: 7.5 ± 3.2 (>120.0)
  EC50: 7.5 µM
[8]
  inhibitory effect on cell lysis induced by perforin: active
PR8 virus [4]
  plaque titer (infectious viral titers): significantly inhibited
In vitro
  CC50: > 900 µM
A/Hong Kong/8/68 (H3N2)
  S.I. (selectivity index, CC50/EC50), A/Hong Kong/8/68: 6.8 ± 1.3 (>132.4)
  EC50: 6.8 µM
PR8 virus entry
  NP signal, distribution and intensity in cells: not affected
FECV
  antiviral activity against FECV: no antiviral activity was detected
[5]
  viral RNA polymerase function: not changed
PR8 virus [6]
  vRNA levels in culture supernatants: significantly inhibited
B/Lee/40
  S.I. (selectivity index, CC50/EC50), B/Lee/40: 7.0 ± 3.8 (>128.6)
HIV
  antiviral activity against HIV: no antiviral activity was detected
PR8 NA
  IC50: 1.5 ± 0.4 µM
CoxB
  antiviral activity against CoxB: no antiviral activity was detected

## NC(=O)c1nc(F)c[nH]c1=O [Compound T-705, 6-flouro-3-hydroxy-2-pyrazinecarboxamide, reference compound]
[7]
  EC50: 4.3 ± 2.4 µM
In vitro
  CC50: > 100 µM
A/Hong Kong/8/68 (H3N2)
  EC50: 6.5 ± 1.7 µM
[5]
  viral RNA polymerase function: suppressed
PR8 virus [9]
  HA titer: 8 HAU/50 μl

## O=C(O[C@@H]1Cc2c(O)cc(O)cc2O[C@@H]1c1cc(O)c(O)c(O)c1)c1cc(O)c(O)c(O)c1 [EGCG, (−)-epigallocatechin-3-gallate, reference compound]
PR8 virus entry
  NP signal, distribution and intensity in cells: reduced the overall NP signal intensity

## CCC(CC)O[C@@H]1C=C(C(=O)O)C[C@H](N)[C@H]1NC(C)=O [Oseltamivir carboxylate, oseltamivir carboxylate, reference compound]
[7]
  EC50: 0.03 ± 0.01 µM
In vitro
  CC50: > 100 µM
A/Hong Kong/8/68 (H3N2)
  EC50: < 0.01 µM
PR8 virus [9]
  HA titer: no detection
